{
  "source": "paper PMC6337126",
  "about": "“Thiophene Derivatives as Anticancer Agents and Their Delivery to Tumor Cells Using Albumin Nanoparticles” (Molecules, 2019)",
  "key": {"HepG2 [1]": {"system": "HepG2", "experiment": "MTT screening assay of TPs", "assay_type": "cell-based", "method": "(§1) HepG2 and SMMC-7721 cell lines were cultured and grown in complete DMEM containing 10% FBS and 1% streptomycin and penicillin in 5% CO2 at 37 °C. TPs were fabricated using the method as described previously. The cytotoxicity of TPs in HepG2 and SMMC-7721 cell in vitro was evaluated by MTT assay. Firstly, cells with a density of 8 × 10^4 cells per wells were placed and cultured in 96-well plates and incubated 24 h at 37 °C. Then, 100 μL of TPs DMEM solution (30 μg/mL) was added into each well. After incubated 24 h, 10 μL of MTT solution (5.0 mg/mL) was added and incubated 4 h. Finally, the medium was removed, 100 μL of DMSO was added and OD values were tested using microplate reader (Synergy4, multi-mode microplate reader, BioTek, Winooski, VT, USA) at 490 nm when the formazan precipitate was completely dissolved. It is worth noting that wells containing normal medium without TPs were regarded as controls. In addition, wells which add the medium with paclitaxel were regarded as a positive control."}, "SMMC-7721 [2]": {"system": "SMMC-7721", "experiment": "MTT screening assay of TPs", "assay_type": "cell-based", "method": "as §1"}, "[3]": {"experiment": "Solubility of TP 5 in solvents by HPLC", "assay_type": "physicochemical", "method": "(§2) In order to investigate the solubility and stability of TP 5, a certain amount of TP 5 was dissolved in several solvents (deionized water, PBS buffered solution pH 7.4, ethanol, ethyl acetate, and dichloromethane) and make it saturate. The solubility was measured by HPLC. In addition, for the stability of TP 5, 200.0 μg/mL of TP 5 was placed in different temperature (25.0, 40.0 and 60.0) and the concentration was detected and compared with practical concentration."}, "[4]": {"experiment": "Stability of TP 5 at different temperatures by HPLC", "assay_type": "physicochemical", "conditions": "for Detected Concentration: calculated concentration 200.0 μg/mL, single replicates", "method": "as §2"}, "[5]": {"experiment": "In vitro drug release by dialysis method", "assay_type": "physicochemical", "conditions": "over 120 h, PBS containing 20.0% ethanol, 37 °C", "method": "The detailed process was as follows: first, TP 5 and TP 5-NPs were all dissolved or dispersed in 1.0 mL PBS (pH 7.4), respectively. Then, they were placed in a dialysis bag (the molecule weight cutoff was 12.0 kD). After that, they were placed in 50.0 mL release medium PBS containing 20.0% v/v ethanol and maintained at 37 °C with continuous stirring at 150 rpm. Sink conditions were maintained. At predetermined time intervals, 1.0 mL release medium was withdrawn and replaced with 1.0 mL 37 °C fresh release medium. Finally, the released capacity of TP 5 was detected by HPLC."}, "HepG2 [6]": {"system": "HepG2", "experiment": "Cytotoxicity of TP 5-NPs in vitro (MTT)", "assay_type": "cell-based", "method": "(§3) The cytotoxicity of TP 5-NPs in two cell lines in vitro was assessed. Briefly, cells with a density of 8 × 10^4 cells per wells were placed and cultured in 96-well plates. After incubated 24 h at 37 °C, 100 μL of medium containing different concentrations of TP 5-NPs or TP 5 (10.0, 20.0, 30.0, 40.0 and 50.0 μg/mL) was added to each well and cultured another 24, 48 or 72 h at 37 °C (wells containing the normal medium without formulation were regarded as controls). After that, 10.0 μL of MTT (5.0 mg/mL) was added into each well and incubated for 4.0 h. Finally, the medium was removed and 100.0 μL of DMSO was added. OD values were tested by microplate reader at 490 nm when the formazan precipitate was completely dissolved."}, "SMMC-7721 [7]": {"system": "SMMC-7721", "experiment": "Cytotoxicity of TP 5-NPs in vitro (MTT)", "assay_type": "cell-based", "method": "as §3"}, "HepG2 [8]": {"system": "HepG2", "experiment": "Mitochondrial transmembrane potential assay (JC-1)", "assay_type": "cell-based", "conditions": "HepG2, 30.0 μg/mL, 12 h", "method": "(§4) In general, cell apoptosis is often accompanied by the transformation of mitochondrial transmembrane potential (ΔΨm). […] In order to verify whether TP 5-NPs can induce cancer cell apoptosis, ΔΨm was measured. Firstly, HepG2 and SMMC-7721 cell with a density of 2 × 10^5 cells per wells in 1.0 mL of medium all were seeded in a 12-well plate and incubated for 24 h. After that, 30.0 μg/mL of TP 5-NPs or TP 5 was added and cultured for another 12 h, in which wells containing normal medium without drugs were regarded as controls. Cells were washed using PBS for three times, incubated for 10 min in 10.0 μg/mL of JC-1 dye in the dark. The level of mitochondrial depolarization was observed by inverted fluorescent microscope and quantitatively analyzed by imaging software Image J [26]."}, "SMMC-7721 [9]": {"system": "SMMC-7721", "experiment": "Mitochondrial transmembrane potential assay (JC-1)", "assay_type": "cell-based", "conditions": "SMMC-7721, 30.0 μg/mL, 12 h", "method": "as §4"}, "HepG2 [10]": {"system": "HepG2", "experiment": "ROS assay (DCFH-DA)", "assay_type": "cell-based", "conditions": "HepG2, 30.0 μg/mL, 12 h", "method": "(§5) The experimental procedure was similar to the part 4.2.8. Similarly, HepG2 and SMMC-7721 cell were seeded in a 12-well plate and incubated for 24 h. 30.0 μg/mL of TP 5-NPs or TP 5 was added and cultured for another 12 h. After that, 10 μM 2′, 7′-dichlorodihydrofluorescein diacetate (DCFH-DA, Sigma-Aldrich, Saint Louis, MO, USA) was added and incubated for 10.0 min in the dark. Inversed fluorescent microscope was applied to observe fluorescence images."}, "SMMC-7721 [11]": {"system": "SMMC-7721", "experiment": "ROS assay (DCFH-DA)", "assay_type": "cell-based", "conditions": "SMMC-7721, 30.0 μg/mL, 12 h", "method": "as §5"}},
  "note": "Several values for one entry are separate records, joined by “and”; a condition that tells them apart may be missing. Equal values may be shown once. Read-outs that look alike come from different tables or passages of the source.",
  "data": [
    {"smiles": "Cc1cc2c(s1)C1=NC(=O)OC1(c1ccc(Cl)c(Cl)c1)CC2", "note": "(centres unmarked) [TP 5]", "values": [
      {"measurement": "antitumor activity compared with other TPs and paclitaxel", "setting": "HepG2 [1]; HepG2, 30.0 μg/mL, 24 h", "value": "higher activity than other TPs including paclitaxel"},
      {"measurement": "antitumor activity compared with other TPs and paclitaxel", "setting": "SMMC-7721 [2]; SMMC-7721, 30.0 μg/mL, 24 h", "value": "higher activity than other TPs including paclitaxel"},
      {"measurement": "solubility", "setting": "[3]; PBS containing 20.0% v/v ethanol, PBS pH 7.4 containing 20.0% v/v ethanol, read-out: Solubility in release (acceptor) medium", "value": 0.0882, "unit": "mg/mL"},
      {"measurement": "solubility", "setting": "[3]; aqueous buffer, thermodynamic from solid, PBS buffered solution (pH 7.4), 25 °C, read-out: Solubility", "value": 0.0276, "unit": "mg/mL"},
      {"measurement": "solubility", "setting": "[3]; deionized water, 25 °C, water, thermodynamic from solid, read-out: Solubility", "value": 0.0264, "unit": "mg/mL"},
      {"measurement": "solubility", "setting": "[3]; dichloromethane, 25 °C, organic solvent or mixture, thermodynamic from solid, read-out: Solubility", "value": "> 13", "unit": "mg/mL"},
      {"measurement": "solubility", "setting": "[3]; ethanol, 25 °C, organic solvent or mixture, thermodynamic from solid, read-out: Solubility", "value": 2.48, "unit": "mg/mL"},
      {"measurement": "solubility", "setting": "[3]; ethyl acetate, 25 °C, organic solvent or mixture, thermodynamic from solid, read-out: Solubility", "value": "> 6.8", "unit": "mg/mL"},
      {"measurement": "Detected Concentration", "setting": "[4]; 25.0 °C", "value": "201.18 µg/mL and 200.53 µg/mL and 199.88 µg/mL"},
      {"measurement": "Detected Concentration", "setting": "[4]; 40.0 °C", "value": "202.66 µg/mL and 200.05 µg/mL and 202.01 µg/mL"},
      {"measurement": "Detected Concentration", "setting": "[4]; 60.0 °C", "value": "202.28 µg/mL and 202.93 µg/mL and 201.19 µg/mL"},
      {"measurement": "thermal stability of structure", "setting": "[4]; temperature increased to 60 °C, HPLC", "value": "stable"},
      {"measurement": "drug released", "setting": "[5]", "value": "~ 20%"},
      {"measurement": "cytotoxicity", "setting": "HepG2 [6]; HepG2, 10.0-50.0 μg/mL, 24, 48 and 72 h", "value": "dose and time-dependent cytotoxicity"},
      {"measurement": "concentration above which cells were completely killed", "setting": "HepG2 [6]; HepG2, MTT, 24, 48 and 72 h", "value": "exceeds 40.0 μg/mL"},
      {"measurement": "cytotoxicity", "setting": "SMMC-7721 [7]; SMMC-7721, 10.0-50.0 μg/mL, 24, 48 and 72 h", "value": "dose and time-dependent cytotoxicity"},
      {"measurement": "concentration above which cells were completely killed", "setting": "SMMC-7721 [7]; SMMC-7721, MTT, 24, 48 and 72 h", "value": "exceeds 40.0 μg/mL"},
      {"measurement": "JC-1 polymer/monomer (red/green) fluorescence ratio", "setting": "HepG2 [8]", "value": "lower than those of controls"},
      {"measurement": "JC-1 polymer/monomer (red/green) fluorescence ratio", "setting": "SMMC-7721 [9]", "value": "lower than those of controls"},
      {"measurement": "levels of ROS", "setting": "HepG2 [10]", "value": "higher than those of control cells"},
      {"measurement": "levels of ROS", "setting": "SMMC-7721 [11]", "value": "higher than those of control cells"}
    ]},
    {"smiles": "CC(=O)O[C@H]1C(=O)[C@@]2(C)[C@H]([C@H](OC(=O)c3ccccc3)[C@]3(O)C[C@H](OC(=O)[C@H](O)[C@@H](NC(=O)c4ccccc4)c4ccccc4)C(C)=C1C3(C)C)[C@]1(OC(C)=O)CO[C@@H]1C[C@@H]2O", "note": "[paclitaxel, reference compound]", "values": [
      {"measurement": "IC50", "setting": "HepG2 [1]; Homo sapiens, HepG2, 24 h", "value": 35.9, "unit": "mg/L"},
      {"measurement": "IC50", "setting": "SMMC-7721 [2]; Homo sapiens, SMMC-7721, 24 h", "value": 35.3, "unit": "mg/L"}
    ]}
  ]
}
